Reference: patent publication US5112845A, “Alpha-heterocycle substituted tolunitriles” (Ciba-Geigy Corporation, priority 1990, dated 1992)
Where a name gives a salt, the structure may show the parent alone. Read-outs that look alike come from different tables or passages of the source.

Columns and labels:
female rats = assay: in vivo antifertility property (implantation and/or fetal resorption) in rats; set-up: species or system rat (Sprague Dawley); details: Rattus norvegicus, po, administered as the fumarate or hemisuccinate salt, read-out: dose at which fertility is inhibited
Description: Mated female rats (Sprague Dawley) weighing approximately 180-200 g were obtained on the day of coitus. The presence of sperm in the vagina was used as a verification that mating had occurred. On the day of receipt, day of coitus or day 0 of `pregnancy`, the rats are divided into two groups of six to eight rats per group. One group is given various doses of the test compound p.o., suspended in 0.2 ml of carboxymethylcellulose (CMC) beginning on day 1 of `pregnancy` and continuing through day 9 of `pregnancy`. These same rats receive a daily injection of 0.1 ml of sesame oil s.c. over this same time frame. The second group of rats receive the vehicles, CMC p.o. and oil s.c., on days 1-9 of `pregnancy`. All of the rats are sacrificed on day 12 or 13 of `pregnancy`, and their uteri are exposed and examined for fetuses and/or resorption sites.

[1] = tested on: dimethylbenzanthracene (DMBA)-induced mammary tumors; assay: antitumor activity in DMBA-induced mammary tumors in rats; type: in vivo, female Sprague-Dawley rats; details: Rattus norvegicus, po, read-out: effective daily dose (antitumor)
From the text: Exp. Biol. Med. 160, 296-301 (1979)].

aromatase = target: T1, aromatase (Homo sapiens, UniProt P11511); assay: in vitro inhibition of aromatase activity (human placental microsomes, aromatization of [1,2-^3 H]-androstenedione); type: biochemical; details: 20 minutes at 37° C
T1 construct: A microsomal fraction is prepared from human placenta by the method essentially as described by Thompson and Siiteri; from tissue; host or cells: human placenta, microsomal fraction (lyophilized)
T1 sequence (P11511 1-503): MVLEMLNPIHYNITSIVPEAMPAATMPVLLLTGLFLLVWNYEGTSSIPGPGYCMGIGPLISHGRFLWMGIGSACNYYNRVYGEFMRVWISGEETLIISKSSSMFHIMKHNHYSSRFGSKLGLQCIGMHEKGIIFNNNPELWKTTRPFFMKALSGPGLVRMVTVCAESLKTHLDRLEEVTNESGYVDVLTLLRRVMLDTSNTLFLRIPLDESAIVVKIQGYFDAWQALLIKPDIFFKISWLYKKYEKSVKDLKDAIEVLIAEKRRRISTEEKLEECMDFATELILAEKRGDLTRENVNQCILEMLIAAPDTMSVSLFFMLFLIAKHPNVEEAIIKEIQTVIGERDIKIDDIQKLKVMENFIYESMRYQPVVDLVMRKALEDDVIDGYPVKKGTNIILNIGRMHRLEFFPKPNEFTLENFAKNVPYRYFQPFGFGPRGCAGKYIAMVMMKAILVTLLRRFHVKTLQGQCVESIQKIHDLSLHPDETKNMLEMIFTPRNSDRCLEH
Description: The microsomal preparation so obtained is lyophilized and stored at -40° C.
The assay is conducted substantially as described by Thompson and Siiteri. The human placental microsomes are added to [1,2-^3 H]-androstenedioneand incubated for 20 minutes at 37° C. The amount of aromatization of the labelled substrate is detected by the […] of ^3 H2 O into the incubation medium. The substrate is removed by chloroform extraction, followed by adsorption to charcoal in suspension. The charcoal is removed by centrifugation and the steroid-free medium is counted in a liquid scintillation counter. Compounds are tested for aromatase inhibitory activity by adding them to the incubation medium prior to the addition of the microsomes. The relative cpm obtained with and without the inhibitor is used to calculate the percent inhibition of the aromatization of androstenedione to estrone.

estrogen synthesis = assay: in vivo inhibition of aromatase activity: inhibition of estrogen synthesis in rats (ovarian estrogen content); details: po, female rat, PMS/hCG and androstenedione treated; read-out: dose at which estrogen synthesis is inhibited
Description: Twenty-one-day-old female rats are injected subcutaneously with 10 IU pregnant mare serum gonadotropin (PMS). Two days later the same rats are injected subcutaneously with 30 IU human chorionic gonadrotropin (hCG). On the day following the hCG treatment the rats are injected subcutaneously with either propylene glycol (0.2 ml; […].) or with various doses of the test compound. […] Four hours after the injection of androstenedione the rats are sacrificed and their ovaries removed and trimmed free of adhering tissue and stored in pairs at -40° C. To determine the total estrogen content of the ovaries, 1.5 ml of 0.05M aqueous potassium phosphate buffer, pH 7.4, and 0.2 ml of 0.1N aqueous sodium hydroxide are added to the tissues which are then homogenized. The homogenate is extracted with 15 ml of diethyl ether, 5 ml aliquots are radioimmunoassayed with antiserum having 100% cross reactivity with estrone, estradiol and estriol. The ovarian estrogen content is expressed as ng estrogen/pair of ovaries. The inhibition of estrogen synthesis, indicative of aromatase inhibition, is calculated from the ovarian estrogen content in treated as compared to control animals.

female dogs [2] = assay: prevention of proestrus and estrus in female dogs treated during anestrus; type: in vivo, dog; details: 10.0 mg/kg p.o. daily for 224 days, ten mature beagles during anestrus; controls exhibited proestrus and estrus at least once
From the text: (§1) Proestrus, for example in the bitch, commences with a vaginal discharge, followed by attraction of the male resulting from estrogen secretion and lasts on an average of 9 days. The females only permit mating during estrus. The compounds of the present invention, when administered to female dogs e.g. on the second day of proestrus, terminate all physical signs of proestrus andestrus and mating will be prevented.
(§2) For example, ten mature beagles during anestrus with known breeding histories were administered e.g. 10.0 mg/kg p.o. daily of the compound of example 46 for 224 days. […] Ten female beagles with known breeding histories were administered 10.0 mg/kg p.o. daily of the compound of example 46 for 91 days beginning on the first day proestrus was noted.

female dogs [3] = assay: cessation of proestrus and estrus in female dogs treated from proestrus; type: in vivo, dog
From the text: as §1, §2

SMILES: N#Cc1ccc(C(c2ccc(C#N)cc2)n2ccnc2)cc1 [Example 2a, 4-[alpha-(4-cyanophenyl)-1-imidazolylmethyl]-benzonitrile]
- minimal effective dose (female rats): ~4000 µg/kg
- minimal effective dose [1]: ~0.1 mg/kg/day

SMILES: N#Cc1ccc(C(c2ccc(C#N)cc2)n2cncn2)cc1 [Example 20a, 4-[alpha-(4-cyanophenyl)-1-(1,2,4-triazolyl)-methyl]benzonitrile]
- minimal effective dose ([1]; daily, p.o., rats, DMBA-induced mammary tumors): ~0.03 mg/kg/day

SMILES: N#Cc1ccc(CC(c2ccc(C#N)cc2)n2ccnc2)cc1 (stereo not drawn) [Example 11f, 4-[alpha-(4-cyanobenzyl)-1-imidazolylmethyl]benzonitrile]
- IC50 (aromatase): ~3 nM
- minimal effective dose (estrogen synthesis): ~3 µg/kg

SMILES: N#Cc1ccc(C(c2cccnc2)n2ccnc2)cc1 (stereo not drawn) [Example 5e, 4-[alpha-(3-pyridyl)-1-imidazolylmethyl]-benzonitrile]
- IC50 (aromatase): ~16 nM
- minimal effective dose (estrogen synthesis): ~3 µg/kg

SMILES: N#Cc1ccc(C(c2cccnc2)n2ccnc2)cc1 (stereo not drawn) [Example 46, sulfate salt of 4-[alpha-(3-pyridyl)-1-imidazolylmethyl]benzonitrile]
- signs of proestrus (female dogs [2]): No signs of proestrus were observed
- signs of proestrus (female dogs [3]; 10.0 mg/kg p.o. daily for 91 days beginning on first day of proestrus, ten female beagles): All signs of proestrus disappeared
- acceptance of a male (female dogs [3]; 10.0 mg/kg p.o. daily for 91 days, ten female beagles, male presented 9 and 11 days later): no dogs accepted a male
- proestrus during remainder of treatment (female dogs [3]; 10.0 mg/kg p.o. daily, remainder of the 91 days, ten female beagles): Proestrus was not observed
- acceptance of a male dog (female dogs [3]; 10.0 mg/kg p.o. daily, 9 and 11 days following the initial sign of proestrus): refused to accept a male dog
- dogs exhibiting estrus during recovery (female dogs [3]; 190 days recovery period after 91 days at 10.0 mg/kg p.o. daily): eight of ten dogs exhibited estrus
